{
  "source": "paper PMC6270892",
  "about": "“Penostatin Derivatives, a Novel Kind of Protein Phosphatase 1B Inhibitors Isolated from Solid Cultures of the Entomogenous Fungus Isaria tenuipes” (Molecules, 2014)",
  "key": {"LAR": {"target": "LAR (Homo sapiens, UniProt P10586)", "sequence (P10586 30-1907, species assumed)": "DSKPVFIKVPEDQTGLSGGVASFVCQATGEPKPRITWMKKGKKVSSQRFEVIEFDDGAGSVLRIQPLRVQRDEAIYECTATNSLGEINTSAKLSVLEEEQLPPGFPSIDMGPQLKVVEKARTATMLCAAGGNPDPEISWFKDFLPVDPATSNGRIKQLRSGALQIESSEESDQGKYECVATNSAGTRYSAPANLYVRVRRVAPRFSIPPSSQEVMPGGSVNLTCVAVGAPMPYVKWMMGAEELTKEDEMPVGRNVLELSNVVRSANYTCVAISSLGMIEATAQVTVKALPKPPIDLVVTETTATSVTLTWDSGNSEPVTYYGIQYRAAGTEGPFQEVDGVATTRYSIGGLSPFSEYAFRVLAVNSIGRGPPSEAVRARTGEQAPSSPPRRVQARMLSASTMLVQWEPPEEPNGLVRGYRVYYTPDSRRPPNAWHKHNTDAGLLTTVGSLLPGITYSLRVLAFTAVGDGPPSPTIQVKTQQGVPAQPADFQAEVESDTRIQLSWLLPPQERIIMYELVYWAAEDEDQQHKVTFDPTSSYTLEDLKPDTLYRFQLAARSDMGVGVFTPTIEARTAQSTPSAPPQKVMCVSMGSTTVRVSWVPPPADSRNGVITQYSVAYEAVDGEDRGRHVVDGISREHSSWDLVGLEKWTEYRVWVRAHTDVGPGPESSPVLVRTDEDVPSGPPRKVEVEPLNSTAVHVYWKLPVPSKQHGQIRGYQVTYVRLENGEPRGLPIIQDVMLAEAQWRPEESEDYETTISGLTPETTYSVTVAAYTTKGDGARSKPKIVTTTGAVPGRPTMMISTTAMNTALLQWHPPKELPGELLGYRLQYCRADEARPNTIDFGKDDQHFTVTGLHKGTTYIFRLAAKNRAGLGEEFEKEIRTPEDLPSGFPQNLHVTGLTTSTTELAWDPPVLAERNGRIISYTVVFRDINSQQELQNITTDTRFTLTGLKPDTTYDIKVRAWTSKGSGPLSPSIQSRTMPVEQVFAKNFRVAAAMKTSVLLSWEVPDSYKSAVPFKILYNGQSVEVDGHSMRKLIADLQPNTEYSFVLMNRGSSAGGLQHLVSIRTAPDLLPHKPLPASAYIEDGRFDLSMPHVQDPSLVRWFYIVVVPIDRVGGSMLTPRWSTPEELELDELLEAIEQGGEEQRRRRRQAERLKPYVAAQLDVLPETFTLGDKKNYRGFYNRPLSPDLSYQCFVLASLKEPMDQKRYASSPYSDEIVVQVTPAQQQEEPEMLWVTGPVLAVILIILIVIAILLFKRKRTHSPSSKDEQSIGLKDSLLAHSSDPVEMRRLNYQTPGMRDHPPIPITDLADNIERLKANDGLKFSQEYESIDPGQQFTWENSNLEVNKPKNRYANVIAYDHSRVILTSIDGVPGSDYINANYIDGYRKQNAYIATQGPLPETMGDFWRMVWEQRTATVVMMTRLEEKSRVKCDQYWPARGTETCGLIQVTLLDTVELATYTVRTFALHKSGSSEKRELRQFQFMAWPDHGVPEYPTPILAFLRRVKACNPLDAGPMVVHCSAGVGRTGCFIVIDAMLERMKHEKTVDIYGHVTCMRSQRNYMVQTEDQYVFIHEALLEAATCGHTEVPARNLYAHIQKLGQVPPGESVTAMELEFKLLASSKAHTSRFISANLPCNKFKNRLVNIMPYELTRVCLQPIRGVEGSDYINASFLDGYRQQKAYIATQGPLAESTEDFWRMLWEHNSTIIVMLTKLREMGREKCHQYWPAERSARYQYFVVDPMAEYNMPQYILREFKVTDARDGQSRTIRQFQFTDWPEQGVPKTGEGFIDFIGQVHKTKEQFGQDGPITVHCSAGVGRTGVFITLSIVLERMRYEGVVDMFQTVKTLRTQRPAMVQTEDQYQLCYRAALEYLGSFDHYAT", "assay": "LAR phosphatase inhibition assay", "format": "biochemical", "description": "PTP1B activity was measured as the rate of hydrolysis of p-nitrophenyl phosphate (pNPP) in a 96-well microtiter plate format. Standard assays were conducted at room temperature in a total volume of 0.2 mL that contained HEPES buffer (50 mM, pH 7.2), NaCl (50 mM), EDTA (1 mM), DTT (1 mM), bovine serum albumin (1 mg/mL), pNPP (at various concentrations, Km) 1.4 (0.03 mM), and PTP1B (35 ng/mL). Sodium orthovanadate was used as the positive control. Inhibitors were added in DMSO at 100 times the final concentration. PTP1B activity was measured as the rate of inorganic phosphate released upon hydrolysis of the IR phosphopeptide, TRDIpYETDpYpYRK, using a Malachite Green method. The enzyme activity was estimated by measuring the absorbance at 405 nm with appropriate corrections. Each experiment was performed either in triplicate, and IC50 data were derived from three independent experiments.\nActivities of LAR were measured as described above except that the HEPES buffer (50 mM) was at pH 6.8, and the enzyme was added at a concentration of 10 μg/mL. Activity of calcineurin (from Sigma Chemical Co.) was assayed using 4-methylumbelliferyl phosphate (0.8 mM) as a substrate in an assay mixture that contained Tris-HCl buffer (40 mM, pH 8.6), NaCl (100 mM), CaCl2 (0.5 mM), DTT (0.5 mM), bovine serum albumin (0.1 mg/mL), calmodulin (50 nM), and calcineurin (25 nM). Sodium orthovanadate was used as the positive control. Fluorescence at 450 nm was monitored with excitation at 400 nm. The color was allowed to develop at room temperature for 30 min, and the sample absorbances were determined at 650 nm using a plate reader (Molecular Devices, Sunnyvale, CA, USA). Each experiment was performed either in triplicate, and IC50 data were derived from three independent experiments.\n(§1) Calculations. PTPase activities, based on a potassium phosphate standard curve, were expressed as nanomoles of phosphate released/min/mg protein. Inhibition of recombinant h-PTP1B by test compounds was calculated as percent of phosphatase control. A four-parameter nonlinear logistic regression of PTPase activities using SAS release 6.08, PROC NLIN, was used for determining IC50 values of the test compounds. The reported IC50 values show significant fit to the regression curve (p < 0.05)."}, "PTP1B [1]": {"target": "T1, PTP1B (Homo sapiens, UniProt P18031)", "T1 sequence (P18031 1-435)": "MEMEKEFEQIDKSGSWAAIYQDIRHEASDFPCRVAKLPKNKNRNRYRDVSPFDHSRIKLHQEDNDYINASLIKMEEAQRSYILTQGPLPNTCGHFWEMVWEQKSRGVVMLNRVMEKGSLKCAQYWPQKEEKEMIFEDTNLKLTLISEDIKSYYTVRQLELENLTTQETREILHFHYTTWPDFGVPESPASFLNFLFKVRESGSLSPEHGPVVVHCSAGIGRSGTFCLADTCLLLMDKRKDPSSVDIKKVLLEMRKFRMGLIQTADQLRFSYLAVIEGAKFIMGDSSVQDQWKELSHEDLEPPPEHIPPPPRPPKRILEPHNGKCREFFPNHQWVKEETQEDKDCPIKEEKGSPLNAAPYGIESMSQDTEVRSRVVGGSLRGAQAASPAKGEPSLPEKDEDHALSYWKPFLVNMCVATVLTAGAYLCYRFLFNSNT", "assay": "PTP1B inhibition assay (pNPP hydrolysis / Malachite Green)", "format": "biochemical", "conditions": "for selectivity between PTP1B and LAR: PTP1B versus LAR, in words; for IC50: mean ± SD of three replicates", "description": "PTP1B activity was measured as the rate of hydrolysis of p-nitrophenyl phosphate (pNPP) in a 96-well microtiter plate format. […] Inhibitors were added in DMSO at 100 times the final concentration. PTP1B activity was measured as the rate of inorganic phosphate released upon hydrolysis of the IR phosphopeptide, TRDIpYETDpYpYRK, using a Malachite Green method. The enzyme activity was estimated by measuring the absorbance at 405 nm with appropriate corrections. Each experiment was performed either in triplicate, and IC50 data were derived from three independent experiments.\nas §1, with “compounds.” for “compounds. The reported IC50 values show significant fit to the regression curve (p < 0.05).”"}, "PTP1B [2]": {"test_system": "PTP1B", "set-up": "method as in PMID 20337577", "conditions": "cited from earlier work"}, "[3]": {"conditions": "tested at 50 μg/mL, read-out: LAR inhibition"}},
  "note": "Where two headings read alike, the source gives them in different places.",
  "data": [
    {"molecule": "CCCCCCC/C=C/[C@@H]1O[C@@]2(O)C(=O)C=C3C=CC[C@H]3[C@@H]2C=C1C", "note": "[Compound 1, penostatin J]", "values": [
      {"measurement": "IC50", "setting": "LAR; [3]", "value": "> 146", "unit": "µM"},
      {"measurement": "selectivity between PTP1B and LAR", "setting": "PTP1B [1]", "value": "significant selectivity"},
      {"measurement": "IC50", "setting": "PTP1B [1]", "value": "12.5 ± 0.9", "unit": "µM"}
    ]},
    {"molecule": "CCCCCCC/C=C/[C@@H]1O[C@H]2C(=O)C=C3C=CC[C@H]3[C@@H]2C=C1C", "note": "[Compound 2, penostatin C]", "values": [
      {"measurement": "IC50", "setting": "LAR; mean ± SD of three replicates, read-out: IC50 (μM) LAR", "value": "53.3 ± 4.06", "unit": "µM"},
      {"measurement": "selectivity between PTP1B and LAR", "setting": "PTP1B [1]", "value": "significant selectivity"},
      {"measurement": "IC50", "setting": "PTP1B [1]", "value": "0.37 ± 0.05", "unit": "µM"}
    ]},
    {"molecule": "CCCCCCC/C=C/[C@@H]1O[C@H]2C(=O)C=C3C[C@H](O)C[C@H]3[C@@H]2C=C1C", "note": "[Compound 3, penostatin A]", "values": [
      {"measurement": "IC50", "setting": "LAR; [3]", "value": "> 145", "unit": "µM"},
      {"measurement": "IC50", "setting": "PTP1B [1]", "value": "15.9 ± 2.49", "unit": "µM"}
    ]},
    {"molecule": "CCCCCCC/C=C/[C@@H]1O[C@H]2C(=O)C=C3C[C@@H](O)C[C@H]3[C@@H]2C=C1C", "note": "[Compound 4, penostatin B]", "values": [
      {"measurement": "IC50", "setting": "LAR; [3]", "value": "> 145", "unit": "µM"},
      {"measurement": "IC50", "setting": "PTP1B [1]", "value": "33.7 ± 7.33", "unit": "µM"}
    ]},
    {"molecule": "CC(C)[C@@H](CC[C@@H](C)[C@H]1CC[C@H]2[C@@H]3[C@H](O)C[C@H]4C[C@@H](NCCCNCCCCNCCCN)CC[C@]4(C)[C@H]3CC[C@]12C)OS(=O)(=O)O", "note": "[MSI-1436]", "values": [
      {"measurement": "IC50", "setting": "PTP1B [2]", "value": "[…]"}
    ]},
    {"molecule": "Cc1cc(-c2c3ccccc3c(Br)c3sc(C)c(C)c23)cc(C)c1O[C@H](Cc1ccccc1)C(=O)O", "note": "[ertiprotafib]", "values": [
      {"measurement": "IC50", "setting": "PTP1B [2]", "value": 1.6, "unit": "µM"}
    ]}
  ]
}
